Marks after values point to notes of the source that are not given here.
Tests used:
[1] = FRAP (ferric ion reducing antioxidant power) assay; conditions: mean ± SD, three experiments
[2] = DPPH radical scavenging assay; conditions: mean ± SD, three experiments
Protocol: The antiradical activity was determined using the stable 1,1-diphenyl-2-picrylhydrazyl radical (DPPH) following the protocol of Brand-Williams with some modifications reported by De Martino and coworkers.

AChE = conditions: cited from earlier work

Row | Structure (SMILES) | FRAP [1] | DPPH IC50 (concentration required to reduce the absorbance of DPPH by 50%) [2] | activity on AChE (AChE) | effect on the AChE enzyme (AChE)
1 | Cc1c(C)c2c(c(C)c1O)CCC(C)(C(=O)O)O2 (stereo not shown) [Trolox, 6-hydroxy-2,5,7,8-tetramethylchroman-2-carboxylic acid] | 5.48 ± 0.34 ^a mmol Fe^2+ Equivalents/g Extract | 3.65 ± 0.08 ^c µg/mL |  | 
2 | COc1ccc(-c2cc(=O)c3c(O)c(OC)c(OC)cc3o2)cc1 [salvigenin, Salvigenin] |  |  | not active | stimulating effect

— article PMC10451299, “Phytochemical Constituents and Biological Activity of Wild and Cultivated Rosmarinus officinalis Hydroalcoholic Extracts” (Antioxidants, 2023)
